Series [1] in a line: DPPH radical scavenging assay. The conditions noted are these: Fig. S1e. On the procedure: In a 96-well microplate, samples (20 μl) at concentrations ranging from 0.1 to 100 μM were mixed with 80 μL of 50 mM sodium phosphate buffer (pH 7.2) and 100 μL of DPPH (1,1-diphenyl-2-picrylhydrazyl) solution (250 μM in methanol) and incubated for 30-min in the dark. Each sample was quantified using a microplate fluorescence reader (SpectraMax iD5, Molecular Devices) at absorbance (517 nm). Edaravone was used as a positive control. The radical scavenging activity was estimated using the following equation: sample absorbance / control absorbance ×100. The dose-response curve, EC50 for the DPPH, was calculated and determined by fitting data with GraphPad Prism software. The fitting method had no special handling of outliers.

The next series addresses T1, HRP (Armoracia rusticana, UniProt P00433).
T1 sequence (P00433 31-353): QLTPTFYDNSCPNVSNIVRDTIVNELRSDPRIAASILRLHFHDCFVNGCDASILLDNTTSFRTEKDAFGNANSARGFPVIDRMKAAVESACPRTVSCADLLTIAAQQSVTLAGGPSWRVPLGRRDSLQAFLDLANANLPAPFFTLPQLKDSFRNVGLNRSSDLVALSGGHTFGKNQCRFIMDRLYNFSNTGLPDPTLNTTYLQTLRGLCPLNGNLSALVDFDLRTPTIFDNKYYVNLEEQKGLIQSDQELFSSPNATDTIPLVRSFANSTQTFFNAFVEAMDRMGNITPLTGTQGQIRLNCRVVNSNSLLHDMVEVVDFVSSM
The experiment in a line: ROS-Glo H2O2 assay with HRP. Type of series: biochemical, horseradish. To be noted: for fold change in H2O2 decomposition by HRP: 30-min window, Fig. 2b. As to the method:
Hb (Sigma‒Aldrich, H7379), H2O2 (Sigma‒Aldrich, H1009), and Amplex Red reagents (Invitrogen, A12222) were obtained for the study. A 4 μM H2O2 solution was prepared in 50 mM sodium phosphate buffer (pH 7.2). Then, 49 μl of this mixture was mixed with 1 μl of the test compound in DMSO or distilled water. The mixture was combined with an assay mixture of Amplex Red reagent (20 mM stock to 0.1 mM) and HRP (200 U/ml stock to 0.2 U/ml) and added to the wells at 50 μl/well. After a 60-min incubation at 37 °C, resorufin production was quantified via a microplate fluorescence reader (SpectraMax iD5, Molecular Devices) at ex/em = 535/580 nm. […] For the ROS-Glo assay, the H2O2 substrate solution and ROS-Glo detection solution were prepared according to the manufacturer’s instructions. 10 μM H2O2 and drugs were prepared as in the Amplex Red assay, with HRP, Hb, CAT, or GPx added as needed. The mixture was added to the wells at 100 μl/well and incubated for 60 min at 37 °C. H2O2 substrate solution was added, and the mixture was incubated at room temperature for 30 min. After the H2O2 substrate solution was added and incubated at room temperature for 30 min, the ROS-Glo detection solution was added, and the mixture was incubated for 15 min. Luminescence was measured via iD5 microplate readers. […] The U/ml was calculated on the basis of the amount of H2O2 reduced by Hb during the reaction, using μg/ml and U/mg.
To evaluate the extent of peroxidase function facilitation by HTPEB (1 μM) and KDS12025 (1 μM) in HRP (0.2 U/ml) and Hb (10 μg/ml), we used the ROS-Glo assay over 30 and 60 min. The fold change was calculated by dividing the delta values during the 30-min reaction for the vehicle over drug conditions.

The next series can be described thus: PAMPA BBB permeability. Type of series: in vitro ADME. To be noted: for Papp at 4 h, 50 μM: PAMPA, pH 7.4, 50 μM. On the procedure: A parallel artificial membrane permeability assay (PAMPA)^70 was performed to validate the blood-brain barrier permeability of KDS12025. The procedure began by preparing a donor solution of the compound in a pH 7.4 donor buffer. This solution was added to the wells of a deep well plate, followed by the addition of a high-sensitivity UV plate filled with donor buffer to serve as the blank sample. An initial sample for the UV plate was taken to establish a baseline reading. The PAMPA sandwich was then assembled by adding the donor plate mixture to the donor plate well, followed by placing a BBB-lipid coated membrane on top and an acceptor plate filled with acceptor buffer. This setup was incubated at 25 °C for a specific duration to allow diffusion. Post-incubation, a sample from the acceptor plate was taken, and the UV absorbance was measured to determine the permeated amount of the test compound. The permeability was then calculated using the PAMPA explorer program, considering the initial donor concentration and the acceptor's concentration after incubation.

A further series has as its system GPx. Description: GPx colorimetric assay. Type of series: biochemical. The conditions noted are these: standard GPx assay. On the procedure: To assess the GPx activity, the reaction was prepared in a 96-well plate by adding glutathione reductase and glutathione solution, GPx enzyme (5µl, final concentration 60 U/ml), and the drug (1 µl of KDS12025 and HTEPB) to a total volume of 100 µl per well, followed by manufactural protocol (Abcam, ab102530). The plate was incubated at room temperature for 15 min to allow pre-reactions and drug interactions to occur. Following the incubation, the reaction was initiated by adding cumene hydroperoxide as the substrate to each well. The absorbance at 340 nm was measured in kinetic mode for 10–20 min, and the rate of NADPH consumption was used to calculate GPx activity, reflecting the enzyme’s ability to reduce the hydroperoxide substrate in the presence of the test compound.

The subject of another series is CAT. The experiment in a line: Bubbling liberation (oxygen release) with CAT. Type of series: biochemical. To be noted: CAT + H2O2, Fig. 2g. On the procedure: The effects of bubbling with DMSO, HTPEB, and KDS12025 were evaluated. To measure the degree of bubbling quantitatively, the reactions were conducted in sealed tubes connected to an inverted cylinder submerged in a water bath to record the time and volume of the bubbles produced. […] Vehicle, HTPEB, and KDS12025 were added to assess their effects. A similar procedure was followed for Hb.

Another series relates to fGiD mice. Description: Immunohistochemistry of hippocampal CA1, fGiD mice. Type of series: in vivo, mouse. The conditions noted are these: fGiD+KDS, 3 mg/kg/day i.p. 16 days, Fig. 4e.
Where [2] appears, read: read-out: BCS code: permeability classification.

Read-outs that look alike come from different tables or passages of the source.

`O=C(O)c1cc(NCCc2ccc(C(F)(F)F)cc2)ccc1O` [HTPEB, 2-hydroxy-5-[2-(4-trifluoromethyl-phenyl)-ethylamino]-benzoic acid, reference compound] yielded an IC50 in series [1] of 19.2 µM. Further, the EC50 at HRP (Fig. 1e, read-out: EC50, ROS-Glo assay with replenishing HRP) was determined as 2.5 µM. Moreover, the “tau value, reaction time-response of HRP with HTPEB” value at HRP (Fig. S1b) was found to be 8.57 min. The “fold change in H2O2 decomposition by HRP” value at HRP is on record as 3.769±0.7911. Further, the “BCS code: CNS +/- classification” value in “PAMPA BBB permeability” (50 μM, 4 h) is “- (< 10)”. The “Pe (PAMPA BBB permeability)” value in “PAMPA BBB permeability” (50 μM, 4 h, U.V) is 3.56 10^-6cm/sec. In the series “PAMPA BBB permeability” (setting [2]), the Papp at 4 h, 50 μM is more than 0.4 ×10⁻⁶ cm/s. The “effect on GPx activity” value in the series on GPx is “no enhancement”. Moreover, the “bubbles per 1 × 1 mm^2 area” value in the series on CAT is 84.5±9.957.

As for `CNc1ccc(NCCc2ccccc2OC)cc1.Cl` [KDS12025, N^1-(2-methoxyphenethyl)-N^4-methylbenzene-1,4-diamine hydrochloride salt], the midpoint of inhibition in series [1], the IC50, lay at 155 µM. The “fold change in H2O2 decomposition by HRP” value at HRP was 5.642±0.5747. The “BCS code: CNS +/- classification” value in the series “PAMPA BBB permeability” (50 μM, 4 h) is on record as “+ (> 10)”. In addition, the Papp at 4 h, 50 μM is 67.4 ×10⁻⁶ cm/s in “PAMPA BBB permeability” (U.V, read-out: Pe (PAMPA BBB permeability)) and more than 0.4 ×10⁻⁶ cm/s in “PAMPA BBB permeability” (setting [2]). Besides, the “effect on GPx activity” value in the series on GPx was “did not affect other peroxidases”. In addition, the “mean GFAP intensity in the GFAP-positive area” value in the series on fGiD mice is “fGcon (49.2±2.7, n=9), fGiD (82.5±3.6, n=9), fGiD+KDS (59.0±2.5, n=9) One-way ANOVA with Tukey's multiple comparisons test, F(2,24) = 33.23, p < 0.001 fGcon vs. fGiD, p < 0.01; fGcon vs. fGiD+KDS, p = 0.07; fGiD vs. fGiD+KDS12025 (0.1mpk), p = 0.01”. Moreover, the “bubbles per 1 × 1 mm^2 area” value with CAT was determined as 92.0±6.622.

As a reminder, the IC50 is the midpoint of a concentration-inhibition curve. Read a high IC50 as lower potency. The term EC50 denotes the concentration that produces a half-maximal response.

These data come from publication PMC12373846, “Hemoglobin as a pseudoperoxidase and drug target for oxidative stress-related diseases” (Signal Transduction and Targeted Therapy, 2025).
